Data taken from US8124135B2, “Compositions and methods for reduction of LDL oxidation” (VDF FutureCeuticals, Inc., priority 2005, dated 2012).

Tested on: Cu-induced LDL oxidation in human serum
Assay: Cu-induced LDL oxidation in human serum ex vivo (fluorescence)
Conditions: after 2 hrs of serum exposure to copper ions
Protocol: Total amounts of cholesterol, HDL, LDL, triglycerides were measured using Cholestech System. SPG in powder form was provided by VDF FutureCeuticals, Inc. and dissolved in water at various ad indicated concentrations. Copper chloride was from Sigma. Black transparent-bottom 96-well plates were from Nalgene Nunc International. Oxidation of LDL was measured using fluorescence methods as described elsewhere (supra). Cu-induced LDL oxidation was performed in PBS (100 ul/well) with 4 ul of human sera, 2 ul of copper chloride (concentration 4 mM) and 0.5 ul of H2O2 (concentration 88.2 nM) resulting in 8-uM concentration of copper ions and 44 μM of hydrogen peroxide, respectively. Formation of Cu-induced oxLDL was measured directly in human serum using a 96-well plate set up and Gemini Fluorescent plate reader (Molecular Devices). The fluorescence signal at 360/430 and 360/470 was measured at time 0, 2 and 16 hours. oxLDL fluorescence values compared to concentration 0 on each graph show how much fluorescent signal for oxidized LDL increased between time 0 and 2 or 16 hrs, respectively, while the value at concentration 0 represents the max increase of oxLDL generation under the experimental conditions.

O=C1O[C@H]([C@@H](O)CO)C(O)=C1O [ascorbic acid]
IC50 of Cu-induced LDL oxidation in serum: 69 µg/mL
